PubChem BioAssay (NCI)
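Each compound was tested at five concentrations against cells in 96-well plates for 48 hours. GI50: concentration for 50% inhibition of growth. TGI denotes the concentration required for complete inhibition of growth.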

Columns and labels:
Assay in all cases: NCI tumour cell line growth inhibition, 48 h
[1] = tested on: 786-0 renal
[2] = tested on: A498 renal
[3] = tested on: A549 NSCLC
[4] = tested on: ACHN renal
[5] = tested on: BT-549 breast
[6] = tested on: CAKI-1 renal
[7] = tested on: CCRF-CEM leukemia
[8] = tested on: COLO 205 colon
[9] = tested on: DU-145 prostate
[10] = tested on: EKVX NSCLC
[11] = tested on: HCC-2998 colon
[12] = tested on: HCT-116 colon
[13] = tested on: HCT-15 colon
[14] = tested on: HL-60(TB) leukemia
[15] = tested on: HOP-62 NSCLC
[16] = tested on: HOP-92 NSCLC
[17] = tested on: HS 578T breast
[18] = tested on: HT29 colon
[19] = tested on: IGROV1 ovarian
[20] = tested on: K-562 leukemia
[21] = tested on: KM12 colon
[22] = tested on: LOX IMVI melanoma
[23] = tested on: M14 melanoma
[24] = tested on: MALME-3M melanoma
[25] = tested on: MCF7 breast
[26] = tested on: MDA-MB-231 breast
[27] = tested on: MDA-MB-435
[28] = tested on: MOLT-4 leukemia
[29] = tested on: NCI-H226 lung
[30] = tested on: NCI-H23 lung
[31] = tested on: NCI-H460 lung
[32] = tested on: NCI-H522 lung
[33] = tested on: NCI/ADR-RES ovarian
[34] = tested on: OVCAR-3 ovarian
[35] = tested on: OVCAR-4 ovarian
[36] = tested on: OVCAR-5 ovarian
[37] = tested on: OVCAR-8 ovarian
[38] = tested on: PC-3 prostate
[39] = tested on: RPMI-8226 leukemia
[40] = tested on: RXF 393 renal
[41] = tested on: SF-268 CNS
[42] = tested on: SF-295 CNS
[43] = tested on: SF-539 CNS
[44] = tested on: SK-MEL-2 melanoma
[45] = tested on: SK-MEL-28 melanoma
[46] = tested on: SK-MEL-5 melanoma
[47] = tested on: SK-OV-3 ovarian
[48] = tested on: SN12C renal
[49] = tested on: SNB-19 CNS
[50] = tested on: SNB-75 CNS
[51] = tested on: SR leukemia
[52] = tested on: SW-620 colon
[53] = tested on: T-47D breast
[54] = tested on: TK-10 renal
[55] = tested on: U251 CNS
[56] = tested on: UACC-257 melanoma
[57] = tested on: UACC-62 melanoma
[58] = tested on: UO-31 renal

Compound: CCC(c1ccccc1)c1noc(CCN(CC)CC)n1 (configuration not stated)
- GI50 [1]: 34.4 µM
- TGI [1]: > 100 µM
- GI50 [2]: > 81.9 µM
- TGI [2]: > 100 µM
- GI50 [3]: 42.1 µM
- TGI [3]: > 100 µM
- GI50 [4]: 16.1 µM
- TGI [4]: 31.3 µM
- GI50 [5]: 39.6 µM
- TGI [5]: > 100 µM
- GI50 [6]: 2.18 µM
- TGI [6]: 6.39 µM
- GI50 [7]: 28.5 µM
- TGI [7]: > 86.3 µM
- GI50 [8]: 17.5 µM
- TGI [8]: 34.5 µM
- GI50 [9]: 22.7 µM
- TGI [9]: > 64.3 µM
- GI50 [10]: > 47 µM
- TGI [10]: > 91.3 µM
- GI50 [11]: 50.1 µM
- TGI [11]: > 100 µM
- GI50 [12]: 18.5 µM
- TGI [12]: 43.4 µM
- GI50 [13]: 19.2 µM
- TGI [13]: > 62.3 µM
- GI50 [14]: 18.1 µM
- TGI [14]: 54.5 µM
- GI50 [15]: 42.5 µM
- TGI [15]: > 100 µM
- GI50 [16]: 7.99 µM
- TGI [16]: 49.6 µM
- GI50 [17]: > 40.7 µM
- TGI [17]: > 72.8 µM
- GI50 [18]: 27.2 µM
- TGI [18]: 81.3 µM
- GI50 [19]: > 48.5 µM
- TGI [19]: > 92.1 µM
- GI50 [20]: 25.8 µM
- TGI [20]: > 100 µM
- GI50 [21]: 22.8 µM
- TGI [21]: > 56.1 µM
- GI50 [22]: 34.1 µM
- TGI [22]: > 60.3 µM
- GI50 [23]: 28.8 µM
- TGI [23]: > 100 µM
- GI50 [24]: 30.2 µM
- TGI [24]: > 100 µM
- GI50 [25]: 8.98 µM
- TGI [25]: 76.2 µM
- GI50 [26]: 26.4 µM
- TGI [26]: > 91.2 µM
- GI50 [27]: 23.8 µM
- TGI [27]: > 78.8 µM
- GI50 [28]: 40.9 µM
- TGI [28]: > 100 µM
- GI50 [29]: 23.8 µM
- TGI [29]: 70.9 µM
- GI50 [30]: 63.3 µM
- TGI [30]: > 100 µM
- GI50 [31]: > 52.3 µM
- TGI [31]: > 87.8 µM
- GI50 [32]: 2.98 µM
- TGI [32]: 9.09 µM
- GI50 [33]: 39.1 µM
- TGI [33]: > 100 µM
- GI50 [34]: 25.3 µM
- TGI [34]: > 56.2 µM
- GI50 [35]: 16.4 µM
- TGI [35]: 40.7 µM
- GI50 [36]: 17.1 µM
- TGI [36]: 35.6 µM
- GI50 [37]: 32.5 µM
- TGI [37]: > 100 µM
- GI50 [38]: 49.6 µM
- TGI [38]: > 100 µM
- GI50 [39]: 13.2 µM
- TGI [39]: > 100 µM
- GI50 [40]: 14.8 µM
- TGI [40]: 29 µM
- GI50 [41]: 35.1 µM
- TGI [41]: > 100 µM
- GI50 [42]: > 56.9 µM
- TGI [42]: > 100 µM
- GI50 [43]: 23.2 µM
- TGI [43]: 71.1 µM
- GI50 [44]: 24.7 µM
- TGI [44]: 67.7 µM
- GI50 [45]: 26.7 µM
- TGI [45]: > 73.2 µM
- GI50 [46]: 31.1 µM
- TGI [46]: > 100 µM
- GI50 [47]: > 100 µM
- TGI [47]: > 100 µM
- GI50 [48]: 27.1 µM
- TGI [48]: > 94.8 µM
- GI50 [49]: > 78.4 µM
- TGI [49]: > 100 µM
- GI50 [50]: 21.7 µM
- TGI [50]: > 100 µM
- GI50 [51]: 37.5 µM
- TGI [51]: > 100 µM
- GI50 [52]: 21 µM
- TGI [52]: > 68.1 µM
- GI50 [53]: 13.1 µM
- TGI [53]: 76.2 µM
- GI50 [54]: 42.8 µM
- TGI [54]: > 100 µM
- GI50 [55]: 29.5 µM
- TGI [55]: > 100 µM
- GI50 [56]: > 51.2 µM
- TGI [56]: > 100 µM
- GI50 [57]: 43.2 µM
- TGI [57]: > 100 µM
- GI50 [58]: 32.2 µM
- TGI [58]: > 100 µM

Compound: Cc1cnc(C(=O)NNc2nc3sc4c(c3c(=O)[nH]2)C(C)CCC4)cn1 (configuration not stated)
- GI50 [1]: 1.56 µM
- TGI [1]: 13.5 µM
- GI50 [2]: 2.84 µM
- TGI [2]: 16.8 µM
- GI50 [3]: 1.23 µM
- TGI [3]: 14 µM
- GI50 [4]: 0.55 µM
- TGI [4]: 11 µM
- GI50 [5]: 2.08 µM
- TGI [5]: > 100 µM
- GI50 [6]: 1.5 µM
- TGI [6]: 18.5 µM
- GI50 [7]: 0.671 µM
- TGI [7]: > 100 µM
- GI50 [8]: 2.03 µM
- TGI [8]: 13.4 µM
- GI50 [9]: 1.43 µM
- TGI [9]: 80.7 µM
- GI50 [10]: 1.19 µM
- TGI [10]: 78.2 µM
- GI50 [11]: 1.63 µM
- TGI [11]: 20.8 µM
- GI50 [12]: 0.672 µM
- TGI [12]: 17 µM
- GI50 [13]: 0.411 µM
- TGI [13]: 23.6 µM
- GI50 [14]: 2.04 µM
- TGI [14]: 4.89 µM
- GI50 [15]: 0.273 µM
- TGI [15]: 17.5 µM
- GI50 [16]: 1.84 µM
- TGI [16]: 62.9 µM
- GI50 [17]: 4 µM
- TGI [17]: 84.4 µM
- GI50 [18]: 1.61 µM
- TGI [18]: > 100 µM
- GI50 [19]: 0.759 µM
- TGI [19]: 15.8 µM
- GI50 [20]: 2.66 µM
- TGI [20]: > 100 µM
- GI50 [21]: 0.93 µM
- TGI [21]: 95.6 µM
- GI50 [22]: 0.708 µM
- TGI [22]: 6.37 µM
- GI50 [23]: 0.727 µM
- TGI [23]: 9.52 µM
- GI50 [24]: 1.72 µM
- TGI [24]: 12.2 µM
- GI50 [25]: 1.9 µM
- TGI [25]: > 100 µM
- GI50 [26]: 1.85 µM
- TGI [26]: 18.1 µM
- GI50 [27]: 3.25 µM
- TGI [27]: 26.6 µM
- GI50 [28]: 0.676 µM
- TGI [28]: 13.4 µM
- GI50 [29]: 1.7 µM
- TGI [29]: 12.3 µM
- GI50 [30]: 2.25 µM
- TGI [30]: 43 µM
- GI50 [31]: 0.545 µM
- TGI [31]: 12.9 µM
- GI50 [32]: 2.97 µM
- TGI [32]: > 100 µM
- GI50 [33]: 1.78 µM
- TGI [33]: 10.4 µM
- GI50 [34]: 0.506 µM
- TGI [34]: 17.1 µM
- GI50 [35]: 0.449 µM
- TGI [35]: 12.6 µM
- GI50 [36]: 2.1 µM
- TGI [36]: 15.8 µM
- GI50 [37]: 0.952 µM
- TGI [37]: 16 µM
- GI50 [38]: 2.08 µM
- TGI [38]: 66.6 µM
- GI50 [39]: 3.39 µM
- TGI [39]: > 100 µM
- GI50 [40]: 1.76 µM
- TGI [40]: 8.2 µM
- GI50 [41]: 0.891 µM
- TGI [41]: > 100 µM
- GI50 [42]: 1.08 µM
- TGI [42]: 14.6 µM
- GI50 [43]: 0.918 µM
- TGI [43]: 10.2 µM
- GI50 [44]: 6.64 µM
- TGI [44]: 37.4 µM
- GI50 [45]: 1.37 µM
- TGI [45]: 29.6 µM
- GI50 [46]: 1.04 µM
- TGI [46]: 3.36 µM
- GI50 [47]: 0.524 µM
- TGI [47]: 11.1 µM
- GI50 [48]: 1.17 µM
- TGI [48]: 31.4 µM
- GI50 [49]: 1.29 µM
- TGI [49]: > 100 µM
- GI50 [50]: 0.259 µM
- TGI [50]: 15.1 µM
- GI50 [51]: 0.484 µM
- TGI [51]: 29.2 µM
- GI50 [52]: 2.62 µM
- TGI [52]: 79.2 µM
- GI50 [53]: 2.75 µM
- TGI [53]: > 100 µM
- GI50 [54]: 1.99 µM
- TGI [54]: 39.7 µM
- GI50 [55]: 0.603 µM
- TGI [55]: > 100 µM
- GI50 [56]: 2.61 µM
- TGI [56]: 11.3 µM
- GI50 [57]: 0.528 µM
- TGI [57]: 6.93 µM
- GI50 [58]: 0.414 µM
- TGI [58]: 3.64 µM
